Measurements reported in ChEMBL document CHEMBL2016545, “Discovery of S-777469: an orally available CB2 agonist as an antipruritic agent” (Bioorg Med Chem Lett, 2012).

Key:
Cannabinoid receptor 2 [1] = molecular target: T1, Cannabinoid receptor 2 (Homo sapiens, UniProt P34972); test: Displacement of [3H]-CP55940 from human recombinant CB2 receptor after 60 mins
Cannabinoid receptor 2 [2] = molecular target: T1, Cannabinoid receptor 2; test: Agonist activity at human CB2 receptor expressed in CHO cells assessed as inhibition of forskolin-induced cAMP release after 45 mins; assay type: functional, cell-based
Cannabinoid receptor 1 [3] = molecular target: T2, Cannabinoid receptor 1 (Homo sapiens, UniProt P21554); test: Agonist activity at human CB1 receptor expressed in CHO cells assessed as inhibition of forskolin-induced cAMP release after 25 mins; assay type: functional, cell-based
T2 sequence (P21554 whole entry): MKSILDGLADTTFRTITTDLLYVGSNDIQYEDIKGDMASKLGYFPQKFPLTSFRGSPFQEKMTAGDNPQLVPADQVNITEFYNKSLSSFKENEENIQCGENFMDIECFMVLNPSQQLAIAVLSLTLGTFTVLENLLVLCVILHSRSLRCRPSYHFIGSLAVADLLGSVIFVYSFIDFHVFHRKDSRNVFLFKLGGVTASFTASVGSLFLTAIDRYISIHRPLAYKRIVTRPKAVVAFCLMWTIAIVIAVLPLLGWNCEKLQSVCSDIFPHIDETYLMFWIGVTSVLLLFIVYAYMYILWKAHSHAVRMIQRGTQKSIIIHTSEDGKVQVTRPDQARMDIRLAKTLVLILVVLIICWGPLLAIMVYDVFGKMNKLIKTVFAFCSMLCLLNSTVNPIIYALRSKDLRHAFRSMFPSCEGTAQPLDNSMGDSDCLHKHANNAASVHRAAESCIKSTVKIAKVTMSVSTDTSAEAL

Cannabinoid receptor 1 [4] = molecular target: T2, Cannabinoid receptor 1; test: Displacement of [3H]-CP55940 from human recombinant CB1 receptor after 60 mins
Mus musculus [5] = species on record: Mus musculus; test: animal or person; details: ICR, po, 0.5 h, read-out: INH
Mus musculus [6] = test: Neurotoxicity in ICR mouse assessed as psychoactivity at 0.1 to 1 mg/kg, iv; assay type: toxicity, organism-based; set-up: dose 0.1-1 mg/kg, route intravenous; details: in vivo
[7] = Clearance in cynomolgus monkey at 3 mg/kg, iv; assay type: ADME, organism-based, Macaca fascicularis; set-up: dose 3 mg/kg, route intravenous; details: in vivo
[8] = Clearance in rat at 3 mg/kg, iv; assay type: ADME, organism-based; set-up: dose 3 mg/kg, route intravenous; details: in vivo
[9] = Half life in cynomolgus monkey at 10 mg/kg, po; assay type: ADME, organism-based, Macaca fascicularis; set-up: dose 10 mg/kg, route oral; details: in vivo
[10] = Clearance in beagle dog at 3 mg/kg, iv; assay type: ADME, organism-based, Canis lupus familiaris; set-up: dose 3 mg/kg, route intravenous; details: in vivo
[11] = Volume of distribution at steady state in beagle dog at 3 mg/kg, iv; assay type: ADME, organism-based, Canis lupus familiaris; set-up: dose 3 mg/kg, route intravenous; details: in vivo, read-out: Vdss
[12] = Oral bioavailability in cynomolgus monkey at 10 mg/kg; assay type: ADME, organism-based, Macaca fascicularis; details: in vivo
[13] = Oral bioavailability in beagle dog at 10 mg/kg; assay type: ADME, organism-based, Canis lupus familiaris; details: in vivo
Mus musculus [14] = test: Antipruritic activity in ICR mouse assessed as inhibition of compound 48/80-induced scratching at 1 mg/kg, po measured after 30 mins; assay type: functional; details: 0.5 h
Mus musculus [15] = test: Antipruritic activity in ICR mouse assessed as inhibition of compound 48/80-induced scratching at 3 mg/kg, po measured after 30 mins; assay type: functional; details: 0.5 h
[16] = Oral bioavailability in rat at 10 mg/kg; assay type: ADME, organism-based; details: in vivo
Mus musculus [17] = test: Antipruritic activity in ICR mouse assessed as inhibition of compound 48/80-induced scratching at 10 mg/kg, po measured after 30 mins; assay type: functional; details: 0.5 h
[18] = Volume of distribution at steady state in rat at 3 mg/kg, iv; assay type: ADME, organism-based; set-up: dose 3 mg/kg, route intravenous; details: in vivo, read-out: Vdss
[19] = Volume of distribution at steady state in cynomolgus monkey at 3 mg/kg, iv; assay type: ADME, organism-based, Macaca fascicularis; set-up: dose 3 mg/kg, route intravenous; details: in vivo, read-out: Vdss
[20] = Half life in rat at 10 mg/kg, po; assay type: ADME, organism-based; set-up: dose 10 mg/kg, route oral; details: in vivo
[21] = Half life in beagle dog at 10 mg/kg, po; assay type: ADME, organism-based, Canis lupus familiaris; set-up: dose 10 mg/kg, route oral; details: in vivo

T1 sequence (P34972 whole entry): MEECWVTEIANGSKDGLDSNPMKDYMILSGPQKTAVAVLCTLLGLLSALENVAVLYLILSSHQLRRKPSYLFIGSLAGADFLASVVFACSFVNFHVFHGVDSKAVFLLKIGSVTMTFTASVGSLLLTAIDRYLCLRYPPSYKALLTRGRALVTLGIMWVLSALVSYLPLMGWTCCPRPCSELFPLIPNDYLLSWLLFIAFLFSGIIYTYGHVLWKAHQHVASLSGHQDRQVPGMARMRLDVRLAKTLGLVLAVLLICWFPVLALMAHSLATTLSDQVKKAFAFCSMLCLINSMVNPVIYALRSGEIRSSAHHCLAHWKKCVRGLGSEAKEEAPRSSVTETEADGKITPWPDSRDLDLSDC

Structure (SMILES)	Ki (Cannabinoid receptor 2 [1]) [nM]	IC50 (Cannabinoid receptor 2 [2]) [nM]	IC50 (Cannabinoid receptor 1 [3]) [nM]	Ki (Cannabinoid receptor 1 [4]) [µM]	further results
O=C(NC1(C(=O)O)CCCCC1)c1cc2c(n(Cc3ccc(F)cc3)c1=O)CCCCCC2	16	9	514	0.266	
CCCCn1c(CCC)c(Br)cc(C(=O)NC2(C(=O)O)CCCCC2)c1=O	382			> 5	
CCCc1c(CC)cc(C(=O)NC2(C(=O)O)CCCCC2)c(=O)n1Cc1ccc(F)cc1	263			> 5	
CC(C)(C(=O)O)c1ccc(C(O)CCCN2CCC(C(O)(c3ccccc3)c3ccccc3)CC2)cc1 (stereo not given) [FEXOFENADINE]					inhibition in vivo at 30 mg/kg (Mus musculus [5]): 39%
O=C(NC1(C(=O)O)CCCC1)c1cc2c(n(CC3CCCCC3)c1=O)CCCCCC2	56	14	113	0.258	
O=C(NC1(C(=O)O)CCCCC1)c1cc2c(n(CC3CCCO3)c1=O)CCCCCC2 (stereo not given)	247			> 5	
N#Cc1ccc(Cn2c3c(cc(C(=O)NC4(C(=O)O)CCCCC4)c2=O)CCCCCC3)cc1	144			3.95	
COCCn1c2c(cc(C(=O)NC3(C(=O)O)CCCCC3)c1=O)CCCCCC2	294			> 5	
O=C(NC1(C(=O)O)CCCCCCC1)c1cc2c(n(CC3CCCCC3)c1=O)CCCCCC2		1			
O=C(NC1(C(=O)O)CCCCC1)c1cc2c(n(CC3CCCCC3)c1=O)CCCCCC2	6.7	7	76	0.181	Activity (Mus musculus [6]): Non-toxic
CCc1c(C)cc(C(=O)NC2(C(=O)O)CCCCC2)c(=O)n1Cc1ccc(F)cc1 [S-777469]			> 2000	4.07	clearance [7]: 13.6 mL/min/kg; clearance [8]: 11.3 mL/min/kg; half-life [9]: 446 min; clearance [10]: 6 mL/min/kg; Vd [11]: 1.23 L/kg; bioavailability [12]: 9.01%; bioavailability [13]: 18.7%; inhibition in vivo at 1 mg/kg (Mus musculus [14]): 46%; inhibition in vivo at 3 mg/kg (Mus musculus [15]): 48%; bioavailability [16]: 37.9%; inhibition in vivo at 10 mg/kg (Mus musculus [17]): 59%; Vd [18]: 1.9 L/kg; Vd [19]: 0.87 L/kg; half-life [20]: 372 min; half-life [21]: 768 min
CCCCn1c(CC)c(C)cc(C(=O)NC2(C(=O)O)CCCCC2)c1=O	348				
CCN1CCCC1Cn1c2c(cc(C(=O)NC3(C(=O)O)CCCCC3)c1=O)CCCCCC2 (stereo not given)	2110				
O=C(O)CNC(=O)c1cc2c(n(CC3CCCCC3)c1=O)CCCCCC2	177			1.06	
CCCCn1c2c(cc(C(=O)NC3(C(=O)O)CCCCC3)c1=O)CCCCCC2	56	7	> 2000	> 5	
